Measurements taken from PubChem BioAssay AID1845215 (Molecular Pharmacology Branch, DTP, NCI, 2023).
Several values for one entry are separate records, joined by “and”; a condition that tells them apart may be missing. Equal entries are not always repeated.

System: SW 1271 complex tumor spheroid viability
Assay: Anticancer human tumor SW 1271 cell line growth inhibition;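 further: spheroids exposed to agents for seven days before readout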;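 on viability, T/C: percent of DMSO vehicle control luminescence so 100% = vehicle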
Conditions: for viability, T/C: stronger effect = lower value
From the text: Multicellular complex tumor spheroid response to DNA repair inhibitors in combination with DNA-damaging drugs
This study explores the anticancer activities of DNA-damaging drugs and inhibitors of DNA damage repair, both as single agents and in combinations. Complex tumor spheroids comprised of malignant cells, endothelial cells and mesenchymal stem cells served as an in vitro model for human solid tumors. This model system incorporates physiologically relevant features and patient-derived or established malignant cell lines with clinically relevant genetic alterations from many tumor types. Twenty-six patient-derived or established malignant cell lines were evaluated representing sarcoma, melanoma, small cell lung cancer (SCLC), non-small cell lung cancer (NSCLC), as well as bladder, ovarian and pancreatic cancers. The concentration ranges selected for each drug and investigational agent were based upon clinically achievable concentrations if the clinical Cmax of the agent was known.
Compounds. The drugs and compounds olaparib (NSC753686), talazoparib (NSC767125), berzosertib (NSC777718), elimusertib (NSC800525), nedisertib (NSC802822), VX-984 (NSC792969), AZD-1390 (NSC803789), temozolomide (NSC362856), topotecan (NSC609699), trabectedin (NSC813783), staurosporine (NSC755774), and gemcitabine (NSC613327) were obtained from the National Cancer Institute (NCI) Developmental Therapeutics Program Chemical Repository. The FDA-approved anticancer drug set is available from the Developmental Therapeutics Program at https://dtp.cancer.gov/organization/dscb/obtaining/available_plates.htm. […] The stock solutions were prepared in dimethyl sulfoxide (DMSO, Sigma-Aldrich, St. Louis, MO, cat. D2650) at 400-fold the tested concentration and stored at -70 degrees C. Prior to their use, the stock solutions were diluted in fresh medium and the final DMSO concentration in the assay was 0.25% (v/v). All drugs and investigational agents were tested over a range starting from a high concentration at or near the clinical Cmax and decreasing in half-log increments. If the clinical Cmax for an agent had not been determined, the highest concentration tested was 10 microM.
Cell Lines. The patient-derived cancer cell (PDC) lines: 156681-154-R-J1-PDC, 283228-195-R-J1-PDC, 287954-098-R-J1-PDC, 292921-168-R-J2-PDC, 349418-098-R-PDC, 425362-245-T-J1-PDC, 556581-035-R-J1-PDC, and BL0293-F563-PDC were received from the NCI Patient-Derived Models Repository (PDMR, https://pdmr.cancer.gov). The established cell lines HS-SY-2 (RRID:CVCL_8719), MPNST, and SYO-1 (RRID:CVCL_7146) were obtained from the Sloan Kettering Institute. The alveolar soft parts sarcoma cell line ASPS-1 (RRID:CVCL_S738) was established at the NCI and grown from internal seed stocks. The following established cell lines were purchased from the American Type Culture Collection (ATCC, Manassas, VA): G-401 (ATCC, cat. CRL-1441, RRID:CVCL_0270), SW982 (ATCC, cat. HTB-93, RRID:CVCL_1734), VA-ES-BJ (ATCC, cat. CRL-2138, RRID:CVCL_1785), NCI-H719 (ATCC, cat. CRL-5837, RRID:CVCL_1582), NCI-H196 (ATCC, cat. CRL-5823, RRID:CVCL_1509), NCI-H841 (ATCC, cat. CRL-5845, RRID:CVCL_1595), NCI-H1618 (ATCC, cat. CRL-5879, RRID:CVCL_1480), NCI-H1876 (ATCC, cat. CRL-5902, RRID:CVCL_1503), DMS 114 (ATCC, cat. CRL-2066; RRID:CVCL_1174), NCI-H211 (ATCC, cat. CRL-5824; RRID:CVCL_1529), and SW 1271 (ATCC, cat. CRL-2177, RRID:CVCL_1716). The small cell lung cancer cell line COR-L88 was purchased from Sigma-Aldrich (cat. 92031917-1VL, RRID:CVCL_1141). The non-small cell lung cancer cell lines NCI-H226 (RRID:CVCL_1544) and NCI-H322M (RRID:CVCL_1557) were established at the NCI and grown from internal seed stocks. Pooled donor human umbilical vein endothelial cells (HUVEC, Lonza, cat. CC-2519) and human mesenchymal stem cells (hMSC, Lonza, cat. PT-2501) were purchased from Lonza (Walkersville, MD).
Cell Culture. All cells were maintained in an incubator at 37 degrees C and 5% CO2 with 95% humidity. […]

`CNCc1ccc(-c2cc(-c3nc(-c4ccc(S(=O)(=O)C(C)C)cc4)cnc3N)on2)cc1` + CC[C@@]1(O)C(=O)OCc2c1cc1n(c2=O)Cc2cc3c(CN(C)C)c(O)ccc3nc2-1 gave an IC50 (curve of first compound, second compound 0.003 µM) of 39.3 nM, an IC50 (curve of first compound, second compound 0.00949 µM) of less than 9.49 nM and an IC50 (curve of first compound, second compound 0.03 µM) of less than 9.49 nM. For the same compound, the IC50 (curve of first compound, second compound 0.0949 µM) was less than 9.49 nM, the IC50 (curve of first compound, second compound 0.3 µM) was less than 9.49 nM and the viability, T/C (second compound 0.003 µM, first compound 0.00949 µM) was 84.7%. It also gave a viability, T/C (second compound 0.003 µM, first compound 0.03 µM) of 60.7%, a viability, T/C (second compound 0.003 µM, first compound 0.0949 µM) of 21.3% and a viability, T/C (second compound 0.003 µM, first compound 0.3 µM) of 27.2%. The viability, T/C (second compound 0.003 µM, first compound 0.949 µM) was 5.87%, the viability, T/C (second compound 0.003 µM, first compound 3 µM) was 0.11% and the viability, T/C (second compound 0.00949 µM, first compound 0.00949 µM) was 38.9%. The viability, T/C (second compound 0.00949 µM, first compound 0.03 µM) was 29%, the viability, T/C (second compound 0.00949 µM, first compound 0.0949 µM) was 19.9% and the viability, T/C (second compound 0.00949 µM, first compound 0.3 µM) was 11.5%. It also gave a viability, T/C (second compound 0.00949 µM, first compound 0.949 µM) of 9.07%, a viability, T/C (second compound 0.00949 µM, first compound 3 µM) of 0.1% and a viability, T/C (second compound 0.03 µM, first compound 0.00949 µM) of 22.5%. It also gave a viability, T/C (second compound 0.03 µM, first compound 0.03 µM) of 23.3%, a viability, T/C (second compound 0.03 µM, first compound 0.0949 µM) of 20.2% and a viability, T/C (second compound 0.03 µM, first compound 0.3 µM) of 34.2%. The viability, T/C (second compound 0.03 µM, first compound 0.949 µM) was 12%, the viability, T/C (second compound 0.03 µM, first compound 3 µM) was 0.09% and the viability, T/C (second compound 0.0949 µM, first compound 0.00949 µM) was 23.2%. The viability, T/C (second compound 0.0949 µM, first compound 0.03 µM) was 25.8%, the viability, T/C (second compound 0.0949 µM, first compound 0.0949 µM) was 21.6% and the viability, T/C (second compound 0.0949 µM, first compound 0.3 µM) was 20.5%. The viability, T/C (second compound 0.0949 µM, first compound 0.949 µM) was 10.8%, the viability, T/C (second compound 0.0949 µM, first compound 3 µM) was 0.09% and the viability, T/C (second compound 0.3 µM, first compound 0.00949 µM) was 18.1%. It also gave a viability, T/C (second compound 0.3 µM, first compound 0.03 µM) of 17%, a viability, T/C (second compound 0.3 µM, first compound 0.0949 µM) of 20.4% and a viability, T/C (second compound 0.3 µM, first compound 0.3 µM) of 10.8%. It also gave a viability, T/C (second compound 0.3 µM, first compound 0.949 µM) of 1.75% and a viability, T/C (second compound 0.3 µM, first compound 3 µM) of 7.62%.
With `[2H]c1nc(C)nc([2H])c1-c1cc(NC[C@@H](C)c2cccc3c(C(=O)NC)ccnc23)ncn1` the viability, T/C (compound 0.0316 µM) was 96.9% and 105% and 108%, the viability, T/C (compound 0.1 µM) was 98.7% and 104% and 106% and the viability, T/C (compound 0.316 µM) was 101% and 95.6% and 96.8%. For the same compound, the viability, T/C (compound 1 µM) was 104% (2×) and 99.2%, the viability, T/C (compound 3.16 µM) was 98% and 96.2% and 104% and the viability, T/C (compound 10 µM) was 90.8% and 102% and 96.7%. The IC50 (curve of compound) was greater than 10000 nM.
